Data as given in US20200390729A1, “OPHTHALMIC TOPICAL COMPOSITION COMPRISING DOBESILIC ACID FOR TREATING DISEASES OF THE POSTERIOR SEGMENT OF THE EYE” (LABORATORIOS SALVAT, S.A., priority 2017, published 2020).

Columns and labels:
[1] = Ocular tolerability of CDO in rats, clinical eye evaluation; assay type: in vivo, Diabetic SD male rats; details: CDO 100 mg/ml administered topically
Procedure: Diabetic SD male rats were treated with CDO compositions 2 and 5 of Example 1 for 28 days three times a day (topical instillation of 10 μl/eye). Clinical evaluation of the eye appearance was performed thorough the study.

TNF-α mRNA = assay: Anti-inflammatory activity: relative TNF-α mRNA in retinas, streptozotocin diabetic retinopathy model; assay type: in vivo, SD male rats; details: diabetic rats, CDO 10 mg/ml topical 10 μl/eye TID 28 days
Procedure: Diabetes was induced in SD male rats by single intraperitoneal injection of streptozotocin (STZ) at 60 mg/kg body weight in citrate buffer (pH 4.5). Seven days after STZ administration, blood glucose was measured and the level of 250 mg/dl was considered the threshold value to consider diabetes induction. Ophthalmic treatment with CDO at 10 mg/ml (topical instillation of 10 μl/eye) was initiated once hyperglycemia was confirmed and continued for 28 days three times a day (TID). Rats were randomly divided in 3 groups: I. Control (non-diabetic), II. Diabetic rats with no treatment and III. Diabetic rats with CDO at 10 mg/ml. […]
RNA was isolated from each retina by using the commercial kit SV Total RNA Isolation System (Promega) and stored at −80° C. until use. Relative mRNA levels were quantified using a MX3000 (Stratagene) quantitative PCR system. […]
The qPCR system detects the fluorescence emitted by SYBR, its increase corresponds to exponential increase of the PCR product. The software calculates the threshold cycle (Ct), in which the fluorescence exceeds the background signal. Relative changes in gene expression were calculated using the ΔCt method. […] Relative expression of mRNA in the test samples were determined as fold increase compared with the control sample (non-diabetic).

Question: For O=S(=O)(O)c1cc(O)ccc1O [CDO, Calcium dobesilate monohydrate], which “tolerance after topical administration” value [1] is on record?
Answer: good tolerance

Question: What about the “TNF-α mRNA expression of treated group vs control group (non-diabetic)” value (TNF-α mRNA) of the same compound?
Answer: slightly lower than the control group
